The source of these data is US20260109732A1, “LIPID AMINES” (ModernaTX, Inc., priority 2021, published 2026).

Series [1] is described as follows: Diameter and PDI from DLS measurements of mRNA nanoparticles with lipid amines. Format: physicochemical. In a few lines:
(§1)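 DLS gave size and PDI, and Ribogreen gave encapsulation, for luciferase- or CFTR-mRNA nanoparticles (N:P 4.93). Particles came from IL1/DSPC/cholesterol/PEG-DMG-2K mixed at pH 4, mRNA-loaded, neutralized with TRIS pH 8.12, and then treated with lipid amine SA50 in pH 7.5 buffer.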

The nature of series [2]: Encapsulation of mRNA nanoparticles with lipid amines using Ribogreen assay. Format: physicochemical. In a few lines: as §1
Series [3] concerns HeLa cells. Description: Luciferase Protein Expression Assay in HeLa Cells. Format: cell-based, Human. The following applies: LNPs encapsulating Luciferase mRNA, 25 ng per well, N=4 wells; 5 h serum-free then 24 h; ONE-Glo. The gist of the method: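 Luminescence output, average RLU across N=4 wells, was measured with ONE-Glo after cell lysis. Before that, HeLa cells were exposed to 25 ng/well luciferase-mRNA nanoparticles (PBS control) for 5 h serum-free, then cultured overnight (24 h) in complete MEM.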

For series [4], the system named is HeLa cells. Briefly: CFTR Protein Expression Assay in HeLa Cells. The class given is cell-based, Human. The following applies: LNPs encapsulating CFTR mRNA, N=4 wells; 5 h serum-free then 24 h; immunofluorescence vs PBS control. The gist of the method: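 Readout is fold-change in per-cell CFTR immunofluorescence intensity (488 nm, confocal imaging) relative to PBS-treated cells, from 4 replicate wells. LNPs encapsulating CFTR mRNA were applied serum-free for 5 h, followed by 24 h in complete medium before PFA fixation.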

The mark [5] stands for this setting: CFTR mRNA nanoparticle with lipid amine.
Setting [6] is: Luciferase mRNA nanoparticle modified with lipid amine.

Structures can show the parent of a compound that is named as a salt.

As to `CC[C@H](CC[C@@H](C)[C@H]1CC[C@H]2[C@@H]3CC=C4C[C@@H](OC(=O)CCCC(=O)N(CCC(C)N)CCC(C)N)CC[C@]4(C)[C@H]3CC[C@]12C)C(C)C` (stereo partly drawn) [SA156, (3S,8S,9S,10R,13R,14S,17R)-17-((2R,5R)-5-ethyl-6-methylheptan-2-yl)-10,13-dimethyl-2,3,4,7,8,9,10,11,12,13,14,15,16,17-tetradecahydro-1H-cyclopenta[a]phenanthren-3-yl 5-(bis(3-aminobutyl)amino)-5-oxopentanoate dihydrochloride], the “Diameter (nm)” value in series [1] (setting [5]) turned out to be 76.5 nm; in series [1] (setting [6]) it was 74 nm. The PDI turned out to be 0.18 in series [1] (setting [5]) and 0.15 in series [1] (setting [6]). Moreover, the “% Encapsulation (Ribogreen)” value stood at 99.6% in series [2] (setting [5]) and 99.5% in series [2] (setting [6]). Also, in series [3], the “Average Relative Light Units ± Standard Deviation” value is given as 37662.9 ± 8258.6 Relative Light Units. In addition, in series [4], the “Average fold-change in CFTR signal intensity per cell compared to buffer control ± standard deviation” value was determined as 14.6 ± 0.8 fold-change.

For `CC(C)CCC[C@@H](C)[C@H]1CC[C@H]2[C@@H]3CC=C4C[C@@H](OC(=O)N(CCCC(C)(C)N)CCC(C)(C)N)CC[C@]4(C)[C@H]3CC[C@]12C` [SA157, (3S,8S,9S,10R,13R,14S,17R)-10,13-dimethyl-17-((R)-6-methylheptan-2-yl)-2,3,4,7,8,9,10,11,12,13,14,15,16,17-tetradecahydro-1H-cyclopenta[a]phenanthren-3-yl (3-amino-3-methylbutyl)(4-amino-4-methylpentyl)carbamate dihydrochloride], the figures for the “Diameter (nm)” value in series [1] (setting [5]) and in series [1] (setting [6]) were 73.9 nm and 75 nm, respectively. Also, the results for the PDI in series [1] (setting [5]) and in series [1] (setting [6]) were 0.16 and 0.13, respectively. The “% Encapsulation (Ribogreen)” value worked out at 99.8% in series [2] (setting [5]) and 99.6% in series [2] (setting [6]). Further, the “Average Relative Light Units ± Standard Deviation” value in series [3] is on record as 24130.4 ± 4741.7 Relative Light Units. Also, the “Average fold-change in CFTR signal intensity per cell compared to buffer control ± standard deviation” value in series [4] worked out at 15.9 ± 1.4 fold-change.

As to `CC(C)CCC[C@@H](C)[C@H]1CC[C@H]2[C@@H]3CC=C4C[C@@H](OC(=O)N(CCC(C)(C)N)CCC(C)(C)N)CC[C@]4(C)[C@H]3CC[C@]12C` [SA158, (3S,8S,9S,10R,13R,14S,17R)-10,13-dimethyl-17-((R)-6-methylheptan-2-yl)-2,3,4,7,8,9,10,11,12,13,14,15,16,17-tetradecahydro-1H-cyclopenta[a]phenanthren-3-yl bis(3-amino-3-methylbutyl)carbamate dihydrochloride], the “Diameter (nm)” value is 72.4 nm in series [1] (setting [5]) and 79 nm in series [1] (setting [6]). Besides, the PDI is listed as 0.15 in series [1] (setting [5]) and 0.28 in series [1] (setting [6]). Besides, the “% Encapsulation (Ribogreen)” value in series [2] (setting [5]) came out at 98.3%; in series [2] (setting [6]), 99.7%. Besides, the “Average Relative Light Units ± Standard Deviation” value in series [3] was found to be 33097.8 ± 7405.1 Relative Light Units. Also, the “Average fold-change in CFTR signal intensity per cell compared to buffer control ± standard deviation” value in series [4] stood at 20.4 ± 1.3 fold-change.

`CC(C)CCC[C@@H](C)[C@H]1CC[C@H]2[C@@H]3CC=C4C[C@@H](OC(=O)CCC(=O)N(CCCCNCCC(C)N)CCC(C)N)CC[C@]4(C)[C@H]3CC[C@]12C` (stereo partly drawn) [SA160, (3S,8S,9S,10R,13R,14S,17R)-10,13-dimethyl-17-((R)-6-methylheptan-2-yl)-2,3,4,7,8,9,10,11,12,13,14,15,16,17-tetradecahydro-1H-cyclopenta[a]phenanthren-3-yl 4-((3-aminobutyl)(4-((3-aminobutyl)amino)butyl)amino)-4-oxobutanoate trihydrochloride]: the “Diameter (nm)” value in series [1] (setting [5]) is given as 77.4 nm; in series [1] (setting [6]) it was 75 nm. In addition, the PDI in series [1] (setting [5]) is listed as 0.15; in series [1] (setting [6]) it was 0.11. Further, the “% Encapsulation (Ribogreen)” value in series [2] (setting [5]) is recorded as 98.1%; in series [2] (setting [6]) it was 99.7%. Moreover, the “Average Relative Light Units ± Standard Deviation” value in series [3] was determined as 19694.4 ± 6954.5 Relative Light Units. In series [4], the “Average fold-change in CFTR signal intensity per cell compared to buffer control ± standard deviation” value came to 18.2 ± 1.4 fold-change.

As to `CC[C@H](CC[C@@H](C)[C@H]1CC[C@H]2[C@@H]3CC=C4C[C@@H](OC(=O)CCC(=O)N(CCCCNCCC(C)(C)N)CCC(C)(C)N)CC[C@]4(C)[C@H]3CC[C@]12C)C(C)C` [SA161, (3S,8S,9S,10R,13R,14S,17R)-17-((2R,5R)-5-ethyl-6-methylheptan-2-yl)-10,13-dimethyl-2,3,4,7,8,9,10,11,12,13,14,15,16,17-tetradecahydro-1H-cyclopenta[a]phenanthren-3-yl 4-((3-amino-3-methylbutyl)(4-((3-amino-3-methylbutyl)amino)butyl)amino)-4-oxobutanoate trihydrochloride], the “Diameter (nm)” value in series [1] (setting [5]) stood at 74.2 nm; in series [1] (setting [6]), 77 nm. Moreover, the PDI came out at 0.15 in series [1] (setting [5]) and 0.16 in series [1] (setting [6]). Further, the “% Encapsulation (Ribogreen)” value in series [2] (setting [5]) and in series [2] (setting [6]) was 99.6% each time. Further, the “Average Relative Light Units ± Standard Deviation” value in series [3] stood at 17839.3 ± 7760 Relative Light Units. Also, the “Average fold-change in CFTR signal intensity per cell compared to buffer control ± standard deviation” value in series [4] turned out to be 14.1 ± 1.5 fold-change.

Turning to `CC(C)CCC[C@@H](C)[C@H]1CC[C@H]2[C@@H]3CC=C4C[C@@H](OC(=O)CCC(=O)N(CCCCCCCC(C)N)CCC(C)N)CC[C@]4(C)[C@H]3CC[C@]12C` (stereo partly drawn) [SA162, (3S,8S,9S,10R,13R,14S,17R)-10,13-dimethyl-17-((R)-6-methylheptan-2-yl)-2,3,4,7,8,9,10,11,12,13,14,15,16,17-tetradecahydro-1H-cyclopenta[a]phenanthren-3-yl 4-((3-aminobutyl)(8-aminononyl)amino)-4-oxobutanoate dihydrochloride], the “Diameter (nm)” value came to 75.4 nm in series [1] (setting [5]) and 75 nm in series [1] (setting [6]). For the same compound, the PDI in series [1] (setting [5]) turned out to be 0.16; in series [1] (setting [6]) it was 0.15. Besides, the “% Encapsulation (Ribogreen)” value in series [2] (setting [5]) was found to be 98.6%; in series [2] (setting [6]), 99.4%. Besides, the “Average Relative Light Units ± Standard Deviation” value in series [3] turned out to be 34454.6 ± 3101.8 Relative Light Units. The “Average fold-change in CFTR signal intensity per cell compared to buffer control ± standard deviation” value in series [4] is on record as 21.3 ± 0.6 fold-change.

`CC[C@H](CC[C@@H](C)[C@H]1CC[C@H]2[C@@H]3CC=C4C[C@@H](OC(=O)CCC(=O)N(CCCCCCCC(C)N)CCC(C)N)CC[C@]4(C)[C@H]3CC[C@]12C)C(C)C` (stereo partly drawn) [SA163, (3S,8S,9S,10R,13R,14S,17R)-17-((2R,5R)-5-ethyl-6-methylheptan-2-yl)-10,13-dimethyl-2,3,4,7,8,9,10,11,12,13,14,15,16,17-tetradecahydro-1H-cyclopenta[a]phenanthren-3-yl 4-((3-aminobutyl)(8-aminononyl)amino)-4-oxobutanoate dihydrochloride]: the “Diameter (nm)” value worked out at 70.6 nm in series [1] (setting [5]) and 71 nm in series [1] (setting [6]). The PDI in series [1] (setting [5]) came to 0.09; in series [1] (setting [6]) it was 0.17. Moreover, the “% Encapsulation (Ribogreen)” value in series [2] (setting [5]) was determined as 100%; in series [2] (setting [6]) it was 99.1%. The “Average Relative Light Units ± Standard Deviation” value in series [3] worked out at 30168 ± 7878.9 Relative Light Units. For the same compound, in series [4], the “Average fold-change in CFTR signal intensity per cell compared to buffer control ± standard deviation” value came to 11.3 ± 0.5 fold-change.

On to `CC(C)CCC[C@@H](C)[C@H]1CC[C@H]2[C@@H]3CC=C4C[C@@H](OC(=O)CCC(=O)N(CCCCCCCC(C)(C)N)CCC(C)(C)N)CC[C@]4(C)[C@H]3CC[C@]12C` [SA164, (3S,8S,9S,10R,13R,14S,17R)-10,13-dimethyl-17-((R)-6-methylheptan-2-yl)-2,3,4,7,8,9,10,11,12,13,14,15,16,17-tetradecahydro-1H-cyclopenta[a]phenanthren-3-yl 4-((3-amino-3-methylbutyl)(8-amino-8-methylnonyl)amino)-4-oxobutanoate dihydrochloride], for which the “Diameter (nm)” value in series [1] (setting [5]) stood at 72.5 nm; in series [1] (setting [6]), 73 nm. For the same compound, the PDI in series [1] (setting [5]) and in series [1] (setting [6]) was 0.14 in each case. Also, the figures for the “% Encapsulation (Ribogreen)” value in series [2] (setting [5]) and in series [2] (setting [6]) were 99.2% and 98.0%, respectively. The “Average Relative Light Units ± Standard Deviation” value in series [3] was determined as 17129.2 ± 2374.1 Relative Light Units. Further, in series [4], the “Average fold-change in CFTR signal intensity per cell compared to buffer control ± standard deviation” value is reported as 16.2 ± 0.7 fold-change.
